Measured values reported in patent US12679848B2, “Plasma kallikrein inhibitors” (Merck Sharp & Dohme LLC, priority 2020, dated 2026).

Key:
[1] = biological target: human factor XIa (Homo sapiens, UniProt P03951); test: Factor XIa Assay; format: biochemical; conditions: human factor XIa 0.04 nM, substrate GPR-AFC, 30 min pre-incubation, 25° C., pH 7.4; read-out: FXIa IC50
Method: (§1) The effectiveness of a compound of the present invention as an inhibitor of Coagulation factor XIa can be determined using a relevant purified serine protease, and an appropriate synthetic substrate. The rate of hydrolysis of the chromogenic or fluorogenic substrate by the relevant serine protease was measured both in the absence and presence of compounds of the present invention. Assays were conducted at rt or at 37° C. […] A decrease in the rate of fluorescence change in the presence of inhibitor is indicative of enzyme inhibition. Such methods are known to one skilled in the art. The results of this assay are expressed as the half-maximal inhibitory concentrations (IC50), or the inhibitory constant, Ki.
Compounds were pre-incubated for 30 min at 25° C. with human (0.04 nM) factor XIa in 50 mM HEPES buffer with 150 mM sodium chloride, 5 mM calcium chloride, 0.1% PEG 8000, pH 7.4. factor XIa enzymatic activity was determined by addition of the substrate glycine-proline-arginine-7-amido-4-trifluoromethylcoumarin (GPR-AFC) and measurement of the fluorescence at 400/505 nm after a 60 min incubation at 25° C. The % inhibition for each data point was calculated from the data and analyzed using the log (inhibitor) vs. response four parameters equation to determine the half-maximal inhibitory concentrations (IC50). The IC50 were converted to equilibrium inhibitory constants (Ki) using the Cheng-Prusoff equation.

[2] = biological target: T1, Human plasma kallikrein (Homo sapiens, UniProt P03952); test: Plasma Kallikrein Assay; format: biochemical; conditions: purified Human plasma kallikrein 0.5 nM, substrate Acetyl-K-P-R-AFC, HEPES pH 7.4; read-out: PKal IC50
T1 construct: yields a heavy chain (371 amino acids) and a light chain (248 amino acids); The active site of plasma kallikrein is contained in the light chain; purchased Enzyme Research Laboratories
T1 sequence (P03952 391-638 limits assumed): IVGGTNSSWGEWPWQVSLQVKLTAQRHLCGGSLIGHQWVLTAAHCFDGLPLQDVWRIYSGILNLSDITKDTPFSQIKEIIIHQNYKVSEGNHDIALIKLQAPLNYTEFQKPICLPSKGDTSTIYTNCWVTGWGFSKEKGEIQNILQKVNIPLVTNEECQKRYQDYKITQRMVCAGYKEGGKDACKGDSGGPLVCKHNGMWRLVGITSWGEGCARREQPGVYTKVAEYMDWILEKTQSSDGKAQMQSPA
T1 sequence (P03952 20-390 partner limits assumed): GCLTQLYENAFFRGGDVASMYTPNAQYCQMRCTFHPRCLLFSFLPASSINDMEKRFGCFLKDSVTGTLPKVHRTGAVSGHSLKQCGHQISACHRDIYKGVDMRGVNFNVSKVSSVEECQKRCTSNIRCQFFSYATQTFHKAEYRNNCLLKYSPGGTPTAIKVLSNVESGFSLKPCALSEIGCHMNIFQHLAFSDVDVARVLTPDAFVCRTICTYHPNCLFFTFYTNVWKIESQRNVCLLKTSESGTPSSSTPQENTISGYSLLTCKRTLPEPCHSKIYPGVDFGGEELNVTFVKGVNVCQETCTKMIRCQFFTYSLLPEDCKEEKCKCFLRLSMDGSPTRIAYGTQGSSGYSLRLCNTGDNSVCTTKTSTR
Method: as §1, with “plasma kallikrein” for “Coagulation factor XIa”
Plasma kallikrein determinations were made in 50 mM HEPES buffer at pH 7.4 containing 150 mM NaCl, 5 mM CaCl2), and 0.1% PEG 8000 (polyethylene glycol; Fisher Scientific). Determinations were made using purified Human plasma kallikrein at a final concentration of 0.5 nM (Enzyme Research Laboratories) and the synthetic substrate, Acetyl-K—P—R-AFC (Sigma #C6608) at a concentration of […].
Times required to achieve equilibration between enzyme and inhibitor were determined in control experiments. […] IC50 was determined by inflection point from a four parameter logistic curve fit. Ki was calculated using the Cheng Prusoff equation, Ki=IC50/[…](1+([S]/Km)).

Sequence of human factor XIa (P03951 388-625 limits assumed): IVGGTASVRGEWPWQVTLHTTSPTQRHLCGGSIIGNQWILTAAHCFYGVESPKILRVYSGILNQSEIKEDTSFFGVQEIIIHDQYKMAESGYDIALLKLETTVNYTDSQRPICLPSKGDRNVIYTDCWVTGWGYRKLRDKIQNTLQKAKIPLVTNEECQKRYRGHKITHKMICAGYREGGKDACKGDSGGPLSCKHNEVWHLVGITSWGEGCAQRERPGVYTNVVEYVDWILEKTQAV
Sequence of human factor XIa (P03951 19-387 partner limits assumed): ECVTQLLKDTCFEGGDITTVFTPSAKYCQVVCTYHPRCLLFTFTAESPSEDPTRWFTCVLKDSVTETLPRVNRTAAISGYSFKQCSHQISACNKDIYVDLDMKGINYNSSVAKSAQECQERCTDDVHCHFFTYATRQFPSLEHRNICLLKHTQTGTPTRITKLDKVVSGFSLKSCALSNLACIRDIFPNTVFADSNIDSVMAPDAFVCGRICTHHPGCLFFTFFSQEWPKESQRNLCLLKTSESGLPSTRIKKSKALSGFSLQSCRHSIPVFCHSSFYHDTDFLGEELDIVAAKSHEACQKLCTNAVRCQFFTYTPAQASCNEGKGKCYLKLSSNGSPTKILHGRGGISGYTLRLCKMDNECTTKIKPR

Row | Compound | IC50 [1] | IC50 [2]
1 | Cc1noc(C)c1Cn1ncc(C(=O)N2CCC[C@@]3(C2)OC(=O)Nc2ccc(Cl)c(F)c23)c1N [Example 11, (R)-1'-(5-Amino-1-((3,5-dimethylisoxazol-4-yl)methyl)-1H-pyrazole-4-carbonyl)-6-chloro-5-fluorospiro[benzo[d][1,3]oxazine-4,3'-piperidin]-2(1H)-one] | 438 nM | 1.7 nM
2 | Nc1c(C(=O)N2CCC[C@@]3(C2)OC(=O)Nc2ccc(Cl)c(F)c23)cnn1Cc1cccc(C(F)(F)F)c1 [Example 5, (R)-1'-(5-Amino-1-(3-(trifluoromethyl)benzy1)-1H-pyrazole-4-carbonyl)-6-chloro-5-fluorospiro[benzo[d][1,3]oxazine-4,3'-piperidin]-2(1H)-one] | 726 nM | 1.7 nM
3 | Cn1ncc(C(=O)N2CCC[C@@]3(C2)OC(=O)Nc2ccc(Cl)c(F)c23)c1N [Example 109, (R)-1'-(5-Amino-1-methyl-1H-pyrazole-4-carbonyl)-6-chloro-5-fluorospiro[benzo[d][1,3]oxazine-4,3'-piperidin]-2(1H)-one] | > 10000 nM | 338 nM
4 | Nc1c(C(=O)N2CCC[C@@]3(C2)OC(=O)Nc2ccc(Cl)c(F)c23)cnn1CCc1ccccc1 [Example 16, (R)-1'-(5-Amino-1-phenethyl-1H-pyrazole-4-carbonyl)-6-chloro-5-fluorospiro[benzo[d][1,3]oxazine-4,3'-piperidin]-2(1H)-one] | 441 nM | 4.1 nM
5 | Cc1ccc(C)c(-n2ncc(C(=O)N3CCC[C@@]4(C3)OC(=O)Nc3ccc(Cl)c(F)c34)c2N)c1 [Example 87, (R)-1'-(5-Amino-1-(2,5-dimethylphenyl)-1H-pyrazole-4-carbonyl)-6-chloro-5-fluorospiro[benzo[d][1,3]oxazine-4,3'-piperidin]-2(1H)-one] | 1170 nM | 26.4 nM
6 | Nc1c(C(=O)N2CCC[C@@]3(C2)OC(=O)Nc2ccc(Cl)c(F)c23)cnn1-c1ccccc1 [Example 57, (R)-1'-(5-Amino-1-phenyl-1H-pyrazole-4-carbonyl)-6-chloro-5-fluorospiro[benzo[d][1,3]oxazine-4,3'-piperidin]-2(1H)-one] | 4140 nM | –

Molecules with a lower IC50 [1], results first:

Row | IC50 [1] | IC50 [2] | Compound
7 | 262 nM | – | Nc1c(C(=O)N2CCC[C@@]3(C2)OC(=O)Nc2ccc(Cl)c(F)c23)cnn1-c1ccccc1OC(F)(F)F [Example 72, (R)-1'-(5-Amino-1-(2-(trifluoromethoxy)phenyl)-1H-pyrazole-4-carbonyl)-6-chloro-5-fluorospiro[benzo[d][1,3]oxazine-4,3'-piperidin]-2(1H)-one]
8 | 249 nM | 2.3 nM | COc1ccccc1Cn1ncc(C(=O)N2CCC[C@@]3(C2)OC(=O)Nc2ccc(Cl)c(F)c23)c1N [Example 40, (R)-1'-(5-Amino-1-(2-methoxybenzyl)-1H-pyrazole-4-carbonyl)-6-chloro-5-fluorospiro[benzo[d][1,3]oxazine-4,3'-piperidin]-2(1H)-one]
9 | 162 nM | 1.6 nM | Nc1c(C(=O)N2CCC[C@@]3(C2)OC(=O)Nc2ccc(Cl)c(F)c23)cnn1-c1ccccc1OC1CC1 [Example 89, (R)-1'-(5-Amino-1-(2-cyclopropoxyphenyl)-1H-pyrazole-4-carbonyl)-6-chloro-5-fluorospiro[benzo[d][1,3]oxazine-4,3'-piperidin]-2(1H)-one]
10 | 105 nM | – | CC[C@@H](n1ncc(C(=O)N2CCC[C@@]3(C2)OC(=O)Nc2ccc(Cl)c(F)c23)c1N)C(F)(F)F (single isomer, unassigned) [Example 3]
11 | 68 nM | – | Nc1c(C(=O)N2CCC[C@@]3(C2)OC(=O)Nc2ccc(Cl)c(F)c23)cnn1Cc1ccccc1 [Example 8, (R)-1'-(5-Amino-1-benzyl-1H-pyrazole-4-carbonyl)-6-chloro-5-fluorospiro[benzo[d][1,3]oxazine-4,3'-piperidin]-2(1H)-one]
12 | 9 nM | – | CC[C@H](n1ncc(C(=O)N2CCC[C@@]3(C2)OC(=O)Nc2ccc(Cl)c(F)c23)c1N)C(F)(F)F (single isomer, unassigned) [Example 4]
